We go through two compounds from US9005575B2, “Arg-Gly-Asp-conjugated alpha-melanocyte stimulating hormone hybrid peptide for use in diagnosing and treating melanoma, including metastatic melanoma and methods related to same” (STC.UNM, priority 2009, dated 2015).

Structures are written as SMILES. Positions of bridges follow the written chain, without caps; N, C: chain ends. Non-standard residues stand in square brackets, D forms with d. Residues, ends and D or L forms follow the SMILES beside them.

The series is described as follows: Stability in mouse serum monitored by RP-HPLC. It counts as in vitro ADME. The note with it: 37° C., 24 h. Here is the method:
RGD-Lys-(Arg^11)CCMSH was radiolabeled with ^99mTc via a glucoheptonate transchelation reaction using methods described previously (7). Briefly, 100 μl of 2 mg/ml SnCl2 in 0.2 M glucoheptonate aqueous solution and 200 μl of fresh ^99mTcO4^− solution (1-4 mCi) were added into a reaction vial and incubated at room temperature (25° C.) for […] to form ^99mTc-glucoheptonate. Then, 10 μl of 1 mg/ml RGD-Lys-(Arg^11)CCMSH aqueous solution was added into the reaction vial and the pH of the reaction mixture was adjusted to 8.5 with 0.1 M NaOH. The reaction mixture was incubated at 75° C. for 40 min. […] The stability of ^99mTc-RGD-Lys-(Arg^11)CCMSH was determined by incubation in mouse serum at 37° C. according to the published procedure (27) for various time periods, and monitored for degradation by RP-HPLC.
RGD-Arg-(Arg^11)CCMSH was radiolabeled with ^99mTc via a glucoheptonate transchelation reaction using methods described previously (17). […] The stability of ^99m Tc-RGD-Arg-(Arg^11)CCMSH was determined by incubation in mouse serum at 37° C. according to the published procedure (17) for various time periods, and monitored for degradation by RP-HPLC.

For `CC(C)[C@H](NC(=O)[C@@H]1CCCN1C(=O)[C@H](CCCNC(=N)N)NC(=O)[C@H](CS)NC(=O)[C@H](Cc1c[nH]c2ccccc12)NC(=O)[C@H](CCCNC(=N)N)NC(=O)[C@@H](Cc1ccccc1)NC(=O)[C@H](Cc1c[nH]cn1)NC(=O)[C@H](CCC(=O)O)NC(=O)[C@H](CS)NC(=O)[C@H](CS)NC(=O)[C@H](CCCCN)NC(=O)[C@@H]1CC(=O)N[C@@H](CCCNC(=N)N)C(=O)NCC(=O)N[C@@H](CC(=O)O)C(=O)N[C@H](Cc2ccc(O)cc2)C(=O)N1)C(N)=O` [^99mTc-RGD-Lys-(Arg^11)CCMSH, metal not drawn] (RGD[dY]DKCCEH[dF]RWCRPV-NH2; lactam N-5), the “Stability in mouse serum” value is reported as “stable”.

For `CC(C)[C@H](NC(=O)[C@@H]1CCCN1C(=O)[C@H](CCCNC(=N)N)NC(=O)[C@H](CS)NC(=O)[C@H](Cc1c[nH]c2ccccc12)NC(=O)[C@H](CCCNC(=N)N)NC(=O)[C@@H](Cc1ccccc1)NC(=O)[C@H](Cc1c[nH]cn1)NC(=O)[C@H](CCC(=O)O)NC(=O)[C@H](CS)NC(=O)[C@H](CS)NC(=O)[C@H](CCCNC(=N)N)NC(=O)[C@@H]1CC(=O)N[C@@H](CCCNC(=N)N)C(=O)NCC(=O)N[C@@H](CC(=O)O)C(=O)N[C@H](Cc2ccc(O)cc2)C(=O)N1)C(N)=O` [^99mTc-RGD-Arg-(Arg^11)CCMSH, metal not drawn] (RGD[dY]DRCCEH[dF]RWCRPV-NH2; lactam N-5), the “Stability in mouse serum” value is listed as “stable”.
